We go through 1 compound from publication PMC10507085, “Pharmacological inhibition of TBK1/IKKε blunts immunopathology in a murine model of SARS-CoV-2 infection” (Nature Communications, 2023).

Among the targets are PLK4 (Homo sapiens, UniProt O00444); STK32B (Homo sapiens, UniProt Q9NY57); CDK11B (Homo sapiens, UniProt P21127); WNK1 (Homo sapiens, UniProt Q9H4A3); MYLK3 (Homo sapiens, UniProt Q32MK0); AXL (Homo sapiens, UniProt P30530); AAK1 (Homo sapiens, UniProt Q2M2I8); ALK (Homo sapiens, UniProt Q9UM73); NEK11 (Homo sapiens, UniProt Q8NG66); WNK2 (Homo sapiens, UniProt Q9Y3S1); NTRK1 (Homo sapiens, UniProt P04629); ULK1 (Homo sapiens, UniProt O75385); PRKG2 (Homo sapiens, UniProt Q13237); MAP3K10 (Homo sapiens, UniProt Q02779); PRKACB (Homo sapiens, UniProt P22694); CASK (Homo sapiens, UniProt O14936); CAMK1D (Homo sapiens, UniProt Q8IU85).

What all share (experiment): biochemical
What all share (design): KINOMEscan competition binding, DNA-tagged kinase against immobilised ligand, qPCR read-out
Conditions in all cases: read-out: Percent Control

Assay [1] concerns the target T1, JAK1(JH1domain-catalytic) (Homo sapiens, UniProt P23458).
T1 construct: JH1 domain catalytic

Assay [2] concerns the target T2, TYK2(JH1domain-catalytic) (Homo sapiens, UniProt P29597).
T2 construct: JH1 domain catalytic

The next assay concerns the target T3, PFCDPK1(P.falciparum) (Plasmodium falciparum, UniProt P62344).
T3 construct: gene CDPK1

NTRK1, sequence (P04629 whole entry): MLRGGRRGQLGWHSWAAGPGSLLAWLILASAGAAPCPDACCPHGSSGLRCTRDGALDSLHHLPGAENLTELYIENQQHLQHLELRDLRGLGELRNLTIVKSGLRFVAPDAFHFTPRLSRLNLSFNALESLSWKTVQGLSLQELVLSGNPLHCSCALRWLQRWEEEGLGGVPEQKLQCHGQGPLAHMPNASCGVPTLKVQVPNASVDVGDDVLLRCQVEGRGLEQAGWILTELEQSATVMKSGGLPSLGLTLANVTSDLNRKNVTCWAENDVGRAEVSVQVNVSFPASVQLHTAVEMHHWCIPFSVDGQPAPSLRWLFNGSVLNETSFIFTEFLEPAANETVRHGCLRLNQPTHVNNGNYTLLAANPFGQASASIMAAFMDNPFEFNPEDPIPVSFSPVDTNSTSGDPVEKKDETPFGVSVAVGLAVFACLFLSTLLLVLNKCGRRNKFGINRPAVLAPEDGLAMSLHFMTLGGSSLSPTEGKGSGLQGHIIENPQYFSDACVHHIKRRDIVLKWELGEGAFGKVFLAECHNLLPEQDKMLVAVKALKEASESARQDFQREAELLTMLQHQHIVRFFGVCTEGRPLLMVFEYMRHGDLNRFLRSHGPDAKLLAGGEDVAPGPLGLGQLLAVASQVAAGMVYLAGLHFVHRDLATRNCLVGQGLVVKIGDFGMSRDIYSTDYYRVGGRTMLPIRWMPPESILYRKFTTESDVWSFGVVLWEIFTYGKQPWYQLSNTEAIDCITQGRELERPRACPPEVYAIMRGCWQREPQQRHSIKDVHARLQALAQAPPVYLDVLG
ALK, sequence (Q9UM73 whole entry): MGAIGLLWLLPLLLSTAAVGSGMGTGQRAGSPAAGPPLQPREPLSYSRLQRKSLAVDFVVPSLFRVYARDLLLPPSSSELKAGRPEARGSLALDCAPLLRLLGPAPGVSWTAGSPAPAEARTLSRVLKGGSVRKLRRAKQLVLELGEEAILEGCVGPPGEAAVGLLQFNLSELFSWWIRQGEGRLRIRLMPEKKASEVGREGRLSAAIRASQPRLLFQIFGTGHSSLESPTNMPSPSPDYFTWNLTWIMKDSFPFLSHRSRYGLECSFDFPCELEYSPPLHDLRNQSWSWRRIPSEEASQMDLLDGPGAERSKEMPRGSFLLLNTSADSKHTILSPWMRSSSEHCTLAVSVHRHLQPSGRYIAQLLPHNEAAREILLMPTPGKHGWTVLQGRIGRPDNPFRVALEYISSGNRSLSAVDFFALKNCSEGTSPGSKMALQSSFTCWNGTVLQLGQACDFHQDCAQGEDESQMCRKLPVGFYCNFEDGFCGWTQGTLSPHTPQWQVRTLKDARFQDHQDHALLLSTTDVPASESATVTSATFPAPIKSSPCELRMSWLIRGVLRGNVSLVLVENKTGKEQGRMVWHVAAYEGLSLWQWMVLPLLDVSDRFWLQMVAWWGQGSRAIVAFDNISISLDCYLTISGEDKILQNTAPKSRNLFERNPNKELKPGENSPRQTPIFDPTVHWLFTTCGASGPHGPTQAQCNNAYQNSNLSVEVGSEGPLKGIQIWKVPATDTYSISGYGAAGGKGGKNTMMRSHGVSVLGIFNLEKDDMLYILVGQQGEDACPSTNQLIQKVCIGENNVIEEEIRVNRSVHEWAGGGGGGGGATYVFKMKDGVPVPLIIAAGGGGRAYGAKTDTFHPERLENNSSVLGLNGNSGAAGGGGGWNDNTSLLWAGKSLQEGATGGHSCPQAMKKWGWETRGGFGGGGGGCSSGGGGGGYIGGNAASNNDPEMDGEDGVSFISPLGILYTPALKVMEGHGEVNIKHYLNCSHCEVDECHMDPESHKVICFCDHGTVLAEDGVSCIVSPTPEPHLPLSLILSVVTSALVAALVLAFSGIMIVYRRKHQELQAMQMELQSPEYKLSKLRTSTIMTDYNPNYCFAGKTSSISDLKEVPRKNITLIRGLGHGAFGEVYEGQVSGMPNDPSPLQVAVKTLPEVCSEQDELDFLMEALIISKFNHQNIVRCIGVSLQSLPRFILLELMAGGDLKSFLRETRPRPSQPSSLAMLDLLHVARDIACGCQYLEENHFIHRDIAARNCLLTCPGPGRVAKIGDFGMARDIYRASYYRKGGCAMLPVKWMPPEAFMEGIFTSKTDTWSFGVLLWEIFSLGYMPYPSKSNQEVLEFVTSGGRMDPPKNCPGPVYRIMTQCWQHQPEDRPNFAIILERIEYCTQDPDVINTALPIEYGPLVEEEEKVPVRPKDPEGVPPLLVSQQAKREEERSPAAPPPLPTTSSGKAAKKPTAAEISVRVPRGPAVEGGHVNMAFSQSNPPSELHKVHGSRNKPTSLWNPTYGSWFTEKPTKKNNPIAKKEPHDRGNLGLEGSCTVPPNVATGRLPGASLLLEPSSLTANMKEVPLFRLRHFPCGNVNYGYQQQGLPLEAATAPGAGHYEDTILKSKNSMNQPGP
CDK11B, sequence (P21127 whole entry): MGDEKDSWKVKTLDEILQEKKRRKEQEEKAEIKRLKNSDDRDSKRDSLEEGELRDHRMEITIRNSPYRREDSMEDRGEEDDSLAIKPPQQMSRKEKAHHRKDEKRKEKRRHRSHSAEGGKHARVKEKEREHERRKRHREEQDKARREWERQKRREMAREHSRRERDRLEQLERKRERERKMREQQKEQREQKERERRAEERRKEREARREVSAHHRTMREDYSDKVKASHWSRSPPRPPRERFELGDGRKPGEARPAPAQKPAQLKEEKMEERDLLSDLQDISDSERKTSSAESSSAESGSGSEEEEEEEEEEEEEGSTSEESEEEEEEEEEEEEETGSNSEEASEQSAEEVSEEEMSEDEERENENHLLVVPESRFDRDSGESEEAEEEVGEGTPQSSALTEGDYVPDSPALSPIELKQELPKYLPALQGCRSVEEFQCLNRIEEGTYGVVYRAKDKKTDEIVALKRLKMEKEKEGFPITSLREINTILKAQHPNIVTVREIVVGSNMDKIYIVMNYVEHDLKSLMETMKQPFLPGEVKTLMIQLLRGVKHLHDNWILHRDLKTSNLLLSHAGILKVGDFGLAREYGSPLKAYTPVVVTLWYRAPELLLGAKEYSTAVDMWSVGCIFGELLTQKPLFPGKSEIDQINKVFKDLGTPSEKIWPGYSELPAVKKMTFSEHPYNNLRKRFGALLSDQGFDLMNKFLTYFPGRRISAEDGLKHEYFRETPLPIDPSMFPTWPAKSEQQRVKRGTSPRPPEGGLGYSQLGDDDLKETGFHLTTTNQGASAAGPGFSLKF
T3 sequence (P62344 whole entry): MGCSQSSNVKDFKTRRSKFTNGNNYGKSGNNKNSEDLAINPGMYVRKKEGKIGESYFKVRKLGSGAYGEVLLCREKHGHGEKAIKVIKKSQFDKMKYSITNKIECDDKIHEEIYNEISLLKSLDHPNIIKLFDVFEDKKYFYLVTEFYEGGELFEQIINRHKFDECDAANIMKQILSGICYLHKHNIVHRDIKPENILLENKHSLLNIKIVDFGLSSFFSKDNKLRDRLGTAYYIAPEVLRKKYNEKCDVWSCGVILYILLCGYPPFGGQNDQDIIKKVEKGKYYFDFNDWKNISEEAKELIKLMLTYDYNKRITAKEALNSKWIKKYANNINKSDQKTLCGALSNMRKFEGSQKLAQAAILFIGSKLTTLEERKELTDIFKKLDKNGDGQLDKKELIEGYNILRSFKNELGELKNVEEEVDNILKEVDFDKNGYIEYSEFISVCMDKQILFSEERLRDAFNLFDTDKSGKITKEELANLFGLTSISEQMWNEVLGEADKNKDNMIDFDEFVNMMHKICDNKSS
PLK4, sequence (O00444 whole entry): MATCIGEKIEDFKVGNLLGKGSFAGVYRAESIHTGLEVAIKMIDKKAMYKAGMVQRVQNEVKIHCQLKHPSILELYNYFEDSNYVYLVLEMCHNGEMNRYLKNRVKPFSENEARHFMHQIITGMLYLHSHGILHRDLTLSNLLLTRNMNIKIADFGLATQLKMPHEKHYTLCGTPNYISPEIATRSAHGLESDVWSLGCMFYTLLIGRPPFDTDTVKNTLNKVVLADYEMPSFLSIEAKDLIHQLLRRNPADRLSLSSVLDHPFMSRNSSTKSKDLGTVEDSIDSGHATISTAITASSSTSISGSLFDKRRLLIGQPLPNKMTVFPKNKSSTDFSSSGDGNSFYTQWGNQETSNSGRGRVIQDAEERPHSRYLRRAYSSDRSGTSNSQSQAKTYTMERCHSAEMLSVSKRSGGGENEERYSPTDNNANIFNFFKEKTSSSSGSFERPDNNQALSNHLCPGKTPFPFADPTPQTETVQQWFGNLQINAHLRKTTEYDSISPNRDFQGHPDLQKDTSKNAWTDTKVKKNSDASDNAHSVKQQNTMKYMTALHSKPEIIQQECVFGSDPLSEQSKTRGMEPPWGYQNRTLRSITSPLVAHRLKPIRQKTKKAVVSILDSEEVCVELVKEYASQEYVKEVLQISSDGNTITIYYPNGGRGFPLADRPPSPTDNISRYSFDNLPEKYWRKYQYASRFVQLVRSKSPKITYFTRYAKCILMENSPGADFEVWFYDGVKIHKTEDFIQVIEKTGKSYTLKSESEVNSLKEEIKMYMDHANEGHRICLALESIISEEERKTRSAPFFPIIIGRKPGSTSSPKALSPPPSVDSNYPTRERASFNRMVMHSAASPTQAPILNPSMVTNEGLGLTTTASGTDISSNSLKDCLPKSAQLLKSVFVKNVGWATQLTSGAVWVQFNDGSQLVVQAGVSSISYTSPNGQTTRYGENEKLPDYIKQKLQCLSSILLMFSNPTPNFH
CAMK1D, sequence (Q8IU85 whole entry): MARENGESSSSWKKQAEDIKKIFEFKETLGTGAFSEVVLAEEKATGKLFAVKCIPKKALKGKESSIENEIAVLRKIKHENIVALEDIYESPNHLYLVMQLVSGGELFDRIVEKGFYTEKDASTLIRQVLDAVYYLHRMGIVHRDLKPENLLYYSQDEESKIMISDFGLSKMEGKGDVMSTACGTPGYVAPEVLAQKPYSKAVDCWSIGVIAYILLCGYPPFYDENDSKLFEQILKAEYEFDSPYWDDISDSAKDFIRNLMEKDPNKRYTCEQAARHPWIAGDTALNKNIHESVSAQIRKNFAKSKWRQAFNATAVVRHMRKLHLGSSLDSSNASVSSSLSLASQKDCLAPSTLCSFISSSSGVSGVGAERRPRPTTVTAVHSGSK

For `Oc1ccc(C2=Cc3ccc(O)cc3OC2)cc1` [compound 1, idronoxil], the remaining binding at 10 µM on PLK4 stood at 88%; on STK32B, 100%; at CDK11B, 96%; on WNK1, 83%; at MYLK3, 66%; at AXL, 95%. In addition, the remaining binding at 10 µM at AAK1 stood at 61%; at ALK, 68%; on NEK11, 61%; on WNK2 it was 51%; at NTRK1 it was 91%; in [1], 93%. Besides, the remaining binding at 10 µM in [2] was 74%; on PFCDPK1(P.falciparum), 80%; at ULK1, 89%; on PRKG2 it was 71%; on MAP3K10 it was 82%; at PRKACB it was 88%. For the same compound, the results for the remaining binding at 10 µM at CASK and on CAMK1D were 65% and 100%, respectively.
